Reference: PubChem BioAssay (NCI)
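GI50 is the concentration that inhibits growth by half. TGI is the concentration that stops growth completely.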

Columns and labels:
Assay in all cases: DTP human tumour cell line panel, 384-well format
M14 melanoma = system: M14 melanoma
MDA-MB-435 melanoma = system: MDA-MB-435 melanoma
NCI-H226 lung = system: NCI-H226 lung
MDA-MB-231 breast = system: MDA-MB-231 breast
RXF 393 renal = system: RXF 393 renal
BT-549 breast = system: BT-549 breast
OVCAR-4 ovarian = system: OVCAR-4 ovarian
OVCAR-8 ovarian = system: OVCAR-8 ovarian
NCI-H460 NSCLC = system: NCI-H460 NSCLC
HCC-2998 colon = system: HCC-2998 colon
MCF7 breast = system: MCF7 breast
KM12 colon = system: KM12 colon
NCI-H322M lung = system: NCI-H322M lung
SF-268 CNS = system: SF-268 CNS
MDA-MB-468 breast = system: MDA-MB-468 breast
PC-3 prostate = system: PC-3 prostate
SW-620 colon = system: SW-620 colon
UO-31 renal = system: UO-31 renal
T-47D breast = system: T-47D breast
SN12C renal = system: SN12C renal
A549 NSCLC = system: A549 NSCLC
NCI-H23 lung = system: NCI-H23 lung
SF-295 CNS = system: SF-295 CNS
TK-10 renal = system: TK-10 renal
U251 glioblastoma = system: U251 glioblastoma
786-0 renal = system: 786-0 renal
HCT-116 colon = system: HCT-116 colon
NCI/ADR-RES ovarian = system: NCI/ADR-RES ovarian

With Cc1ccc(NC(=O)c2ccc(CN3CC[C@H](N(C)C)C3)c(C(F)(F)F)c2)cc1Nc1nccc(-c2cncnc2)n1 the GI50 (M14 melanoma) was 0.233 µM, the TGI (M14 melanoma) was 0.811 µM and the GI50 (MDA-MB-435 melanoma) was 1.05 µM. For the same molecule, the TGI (MDA-MB-435 melanoma) was 3.51 µM, the GI50 (NCI-H226 lung) was 2.09 µM and the TGI (NCI-H226 lung) was 5.07 µM. It also gave a GI50 (MDA-MB-231 breast) of 1.75 µM, a TGI (MDA-MB-231 breast) of 3.24 µM and a GI50 (RXF 393 renal) of 1.52 µM. It also gave a TGI (RXF 393 renal) of 3.22 µM, a GI50 (BT-549 breast) of 3.96 µM and a TGI (BT-549 breast) of 10 µM. The GI50 (OVCAR-4 ovarian) was 2.43 µM, the TGI (OVCAR-4 ovarian) was 6.6 µM and the GI50 (OVCAR-8 ovarian) was 2.19 µM. For the same molecule, the TGI (OVCAR-8 ovarian) was 5.3 µM, the GI50 (NCI-H460 NSCLC) was 1.67 µM and the TGI (NCI-H460 NSCLC) was 3.35 µM. For the same molecule, the GI50 (HCC-2998 colon) was 1.16 µM, the TGI (HCC-2998 colon) was 2.64 µM and the GI50 (MCF7 breast) was 2.31 µM. The TGI (MCF7 breast) was 7.76 µM, the GI50 (KM12 colon) was 2.51 µM and the TGI (KM12 colon) was 5.92 µM. The GI50 (NCI-H322M lung) was 3.92 µM, the TGI (NCI-H322M lung) was 12.8 µM and the GI50 (SF-268 CNS) was 2.72 µM. The TGI (SF-268 CNS) was 6.99 µM, the GI50 (MDA-MB-468 breast) was 2.18 µM and the TGI (MDA-MB-468 breast) was 3.66 µM. It also gave a GI50 (PC-3 prostate) of 3.38 µM, a TGI (PC-3 prostate) of 8.45 µM and a GI50 (SW-620 colon) of 3.08 µM. The TGI (SW-620 colon) was 10.6 µM, the GI50 (UO-31 renal) was 2 µM and the TGI (UO-31 renal) was 4.13 µM. It also gave a GI50 (T-47D breast) of 1.53 µM, a TGI (T-47D breast) of 3.06 µM and a GI50 (SN12C renal) of 2.58 µM. The TGI (SN12C renal) was 6.55 µM, the GI50 (A549 NSCLC) was 3.01 µM and the TGI (A549 NSCLC) was 10.9 µM. It also gave a GI50 (NCI-H23 lung) of 2.06 µM, a TGI (NCI-H23 lung) of 7.78 µM and a GI50 (SF-295 CNS) of 1.9 µM. For the same molecule, the TGI (SF-295 CNS) was 3.42 µM, the GI50 (TK-10 renal) was 2.2 µM and the TGI (TK-10 renal) was 4.71 µM. For the same molecule, the GI50 (U251 glioblastoma) was 1.95 µM, the TGI (U251 glioblastoma) was 3.76 µM and the GI50 (786-0 renal) was 1.89 µM. It also gave a TGI (786-0 renal) of 3.47 µM, a GI50 (HCT-116 colon) of 1.38 µM and a TGI (HCT-116 colon) of 2.74 µM. It also gave a GI50 (NCI/ADR-RES ovarian) of 3.88 µM and a TGI (NCI/ADR-RES ovarian) of 13.3 µM.
